# Legend:
# Human Th2 cells = assay: Apoptosis challenge test (Annexin V-PE/PI flow cytometry); assay type: cell-based; conditions: for IC50: Homo sapiens, 100 nM PGD2, absence of IL-2, 16 hrs, read-out: IC50 to the rescuing function of PGD2
# Protocol: Human Th2 cells were treated with 50 U/ml IL-2 or various concentrations of PGD2 in the absence of IL-2 for 16 hrs. The cells were stained with Annexin V-PE/PI and then analysed by FACSArray flow cytometer.
# Human Th2 cells were treated in the absence of IL-2 with a medium containing 100 nM PGD2 and various concentrations of CRTH2 antagonistic compounds (Compounds 1, 2, 3, 4 and 5) for 16 hrs. The cells were stained with Annexin V-PE/PI and then analysed by FACSArray flow cytometer.
# [1] = tested on: human subjects with allergic rhinitis; assay: Vienna Challenge Chamber study (allergen challenge, symptom scores); assay type: in vivo; conditions: for reduction in total nasal symptom score compared to placebo / reduction in total eye symptom score compared to placebo: oral, both patient groups combined; for reduction in total nasal symptom score compared to placebo: FIG. 1A; for reduction in total eye symptom score compared to placebo: FIG. 1B
# Source text: The study was a randomised, double blind, placebo controlled, two way crossover evaluation of Compound 1, given orally for eight days. There was a screening period of one week and a washout period of three weeks between the two treatment periods. There was a follow up one week after the last dose of study drug. The group of patients who received the study drug for the first treatment period and placebo for the second was designated group A, while the group of patients who received placebo for the first treatment period and the study drug for the second treatment period was designated group B.
# The subjects underwent a complete screening assessment to determine a baseline response to allergens. This screening assessment took place one week prior to the start of dosing. • Subjects commenced dosing with Compound 1 or placebo on Day 1 (visit 2 or visit 5) of each treatment period of the study. […] Subjects took each dose (2 capsules in the morning and 2 capsules in the evening) as soon as they had finished breakfast and their evening meal respectively.
# Subjects reported back to the clinic on Day 2 of each treatment period for a 6 hour allergen challenge. The following measurements were obtained: • Total nasal symptom score (TNSS) (obstruction, rhinorrhoea, itch, sneeze) with each symptom scored on a categorical scale from 0 to 3 pre-challenge, every 15 mins from 0 to 6 h post-start of challenge • Eye symptom score (watery eyes, itchy eyes, red eyes) with each symptom scored on a categorical scale from 0 to 3 pre-challenge, every 15 mins from 0 to 6 h post-start of challenge • Other symptoms (cough, itchy throat, itchy ears) with each symptom scored on a categorical scale from 0 to 3 pre-challenge and every 15 mins from 0 to 6 h post-start of challenge
# Subjects reported back to the clinic on Day 8 of each treatment period for a 6 hour allergen challenge and the measurements obtained on Day 2 were repeated.
# A final follow-up visit was conducted one after the last dose of test article in Treatment Period 2.
# serum IgE = assay: Measurement of serum IgE in mild to moderate asthmatics; assay type: in vivo, human
# Source text: The effect of the CRTH2 antagonist Compound 1 compared to placebo was studied in mild to moderate asthmatics with an FEV1 of 60-80% of predicted and requiring only short acting inhaled β2-adrenergic agonists for symptomatic control.
# Blood was collected for measurement of serum IgE at the beginning of the study and after 4 weeks of dosing with Compound 1 or placebo. Total serum IgE was quantified using fluorescent immunoassay using the Phadia CAP system.
# CRTH2 receptor = biological target: T1, CRTH2 receptor (Homo sapiens, UniProt Q9Y5Y4); assay: Calcium mobilisation assay in CHO/CRTH2 cells; assay type: cell-based; conditions: n=3, read-out: EC50, increase in intracellular Ca2+ mobilisation
# T1 construct: expressed in transfected cells; host or cells: Chinese Hamster Ovary (CHO) cells
# T1 sequence (Q9Y5Y4 1-395): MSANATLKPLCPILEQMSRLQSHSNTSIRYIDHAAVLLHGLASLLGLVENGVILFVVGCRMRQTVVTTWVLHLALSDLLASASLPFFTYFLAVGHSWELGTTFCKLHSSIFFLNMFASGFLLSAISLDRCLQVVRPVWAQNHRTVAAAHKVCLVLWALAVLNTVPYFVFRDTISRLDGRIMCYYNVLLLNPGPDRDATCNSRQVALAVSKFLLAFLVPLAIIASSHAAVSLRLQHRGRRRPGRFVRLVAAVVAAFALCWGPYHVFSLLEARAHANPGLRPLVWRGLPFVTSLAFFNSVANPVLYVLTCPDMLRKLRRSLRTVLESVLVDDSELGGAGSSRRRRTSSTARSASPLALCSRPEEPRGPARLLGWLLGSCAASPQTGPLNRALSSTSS
# Protocol: Chinese Hamster Ovary cells were transfected with CRTH2 receptors (CHO/CRTH2) and were maintained in culture in a humidified atmosphere at 37° C. (5% CO2) in Minimum Essential Medium (MEM) supplemented with 10% foetal bovine serum, 2 mM glutamine, and 1 mg ml^−1 active G418. The cells were passaged every 2-3 days. For radioligand binding assay, cells were prepared in triple-layer flasks or in 175 cm^2 square flasks (for membrane preparation). For calcium mobilisation assay, cells were grown in a 96 well plate 24 h prior to the assay at a density of 80,000 cells per well.
# Cells were seeded onto poly-D-lysine coated 96-well plates at a density of 80,000 cells per well and incubated at 37° C. overnight to allow the cells to adhere. Cells were washed twice with HBSS and incubated for 1 h at 37° C. in 100 μl HBSS and 100 μl calcium-3-dye (Molecular Devices), supplemented with 4 mM probenecid. Changes in fluorescence were monitored over a 50 s time course with agonist addition at 17 s using a Flexstation (Molecular Devices).
smiles,measurement,setting,value
"Cc1c(Cc2cc3ccccc3cc2S(C)(=O)=O)c2cc(F)ccc2n1CC(=O)O [Compound 3, {5-Fluoro-3-[(3-methanesulfonylnaphthalen-2-yl)methyl]-2-methylindol-1-yl}-acetic acid]",IC50,Human Th2 cells,< 100 nM
"Cc1c(S(=O)(=O)c2ccc(Cl)cc2)c2cc(F)ccc2n1CC(=O)O [[5-Fluoro-3-(4-chloro-benzenesulfonyl)-2-methyl-indol-1-yl]-acetic acid, reference compound]",IC50,Human Th2 cells,204 ± 160 nM
"Cc1c(Cc2ccc3ccccc3n2)c2cc(F)ccc2n1CC(=O)O [Compound 1, (5-Fluoro-2-methyl-3-quinolin-2-ylmethyl-indol-1-yl)-acetic acid]",IC50,Human Th2 cells,< 100 nM
same,duration of effect on nasal symptom score after the last treatment,"[1]; Group A, on placebo after 8 days of drug and three week washout",more than 4 weeks
same,reduction in total nasal symptom score compared to placebo,[1]; after 2 days of dosing,23%
same,reduction in total eye symptom score compared to placebo,[1]; after 2 days of dosing,45%
same,reduction in total nasal symptom score compared to placebo,[1]; after 8 days of dosing,37%
same,reduction in total eye symptom score compared to placebo,[1]; after 8 days of dosing,61%
same,reduction in Total Nasal Symptom Score (0-6 hr),[1]; remaining 22 days after the last dose,36%
same,reduction in Total Nasal Symptom Score (0-6 hr),[1]; remaining 28 days after the last dose,38%
same,median reduction in IgE at endpoint,"serum IgE; after 4 weeks of dosing, p=0.033 vs placebo, Wilcoxon test",−17.0 IU/mL
same,reduction in serum IgE,"serum IgE; after treatment for 4 weeks, FIG. 3",41%
"CCCCC[C@H](O)/C=C/[C@H]1C(=O)C[C@H](O)[C@@H]1C/C=C\CCCC(=O)O [PGD2, prostaglandin D2, reference compound]",effect on apoptosis of Th2 cells,"Human Th2 cells; absence of IL-2, 16 hrs",anti-apoptotic effect
same,EC50,CRTH2 receptor,2.4 ± 0.5 nM
"Cc1c(Cc2cccnc2S(=O)(=O)c2ccccc2)c2cc(F)ccc2n1CC(=O)O [Compound 4, (3-{[2-(Benzenesulfonyl)pyridin-3-yl]methyl}-5-fluoro-2-methylindol-1-yl)-acetic acid]",IC50,Human Th2 cells,< 100 nM
"Cc1c(Cc2ccccc2S(=O)(=O)c2ccccc2)c2cc(F)ccc2n1CC(=O)O [Compound 2, (3-{[2-(Benzenesulfonyl)phenyl]methyl}-5-fluoro-2-methylindol-1-yl)-acetic acid]",IC50,Human Th2 cells,< 100 nM
